Test results: patent US12121504B1, “Method for producing 1,3-diolein from biomass” (KING SAUD UNIVERSITY, priority 2024, dated 2024)

Test system: C. auris strain
Type: cell-based, Candida auris
Conditions: C. auris strain used in the anti-fungal test
Procedure: The biological activity of compound 1 (linoleic acid) as an antifungal agent against fluconazole- and caspofungin-resistant C. auris was evaluated using disk diffusion assay for determining the inhibition zone (mm) and two-fold serial microdilution assay for determining the minimal inhibitory concentration (MIC) (mg/mL) according to Dilika et al., (2000) and Zheng et al., (2005). The hexadecanoic acid and isopropyl myristate were prepared (both compounds (data not shown) were used in this stage as a negative control).

Compound: CC[C@H](C)C[C@H](C)CCCCCCCCC(=O)N[C@H]1C[C@@H](O)[C@@H](NCCN)NC(=O)[C@@H]2[C@@H](O)CCN2C(=O)[C@H]([C@H](O)CCN)NC(=O)[C@H]([C@H](O)[C@@H](O)c2ccc(O)cc2)NC(=O)[C@@H]2C[C@@H](O)CN2C(=O)[C@H]([C@@H](C)O)NC1=O [caspofungin]
- susceptibility of C. auris strain to standard anti-fungal drug: resistant

Compound: OC(Cn1cncn1)(Cn1cncn1)c1ccc(F)cc1F [fluconazole]
- susceptibility of C. auris strain to standard anti-fungal drug: resistant
